From publication PMC11550293, “Biochemical characterization of a recombinant laccase from Halalkalibacterium halodurans C-125 and its application in the biotransformation of organic compounds” (Biotechnology Letters, 2024)

B1: rLac-HhC125 (Halalkalibacterium halodurans C-125) (protein)
chain: DDHSEMDHGNNQQDEQNEGTFEDGKKVFNLEVTETHWMFNDEVMMDAWTYNGTLPGQEIRVQEGDEVVINVKNSLNVPTALHLHGFPVPNEMDGVPGVTQNAIMPGEEFTYEYQANVPGTYWYHSHQDGATQVDRGLYGVFIVEPVDPESYDTDVAIVIDEFASMGMGMGMDHSTMDHGDMEHDGNDDMSHSEMMNEMYDTMVINGKADPQIESINVVEGNRVKLRFVNAGLFTQVVSIPEHSFKITHYDGQPVNEPDVLQDTAFRIAPAERYDLEIIMDNPGAWGIQVFAEENQERLQALIPLVYEEYEDEELQTVDSISSFFDLTTYGIPKELDIGDITKEYDMLLGSDDGGDTFTINGKKFPNHEIYDVEEGDMVKFTIINDTDFDHPMHLHGDFFHVISKGGKAIQGSPVLKDTLNVRPGETYEIVFEAKNPGNWMFHCHEFHHASGGMVAEIHYEGFELPFTPDPNIPNMPE
notes: native signal peptide removed (forward primer encodes MDDHSEMD...), pET28-a(+) BamHI/HindIII, E. coli BL21(DE3); partially purified by SEC; theoretical monomer 54 kDa; monomer and possibly dimer

Legend:
[1] = biological target: T1, rLac-HhC125 (Halalkalibacterium halodurans, UniProt Q9KB49); experiment: biochemical; conditions: read-out: Residual activity (%) ± SD (0 min)
T1 construct: gene BH2082

[2] = substrate: COc1cc(C=NN=Cc2cc(OC)c(O)c(OC)c2)cc(OC)c1O; experiment: purified protein; assay type: biochemical, Halalkalibacterium halodurans; conditions: 100 mM Tris-HCl pH 8, 2 mM CuSO4, enzyme pre-treated 50 °C 20 min, partially purified enzyme

Molecule	remaining activity at 1000 µM [1] [%]	Km [2] [µM]
NC(=S)Nc1ccccc1 [Phenylthiourea]	3.9 ± 3.8	–
B1	–	2.48
